Reference: patent US11571423B2, “Small molecule modulators of human sting” (Curadev Pharma Limited, priority 2017, dated 2023)
Where two headings read alike, the source gives them in different places.

Assays:
hSTING(HAQ) = hSTING(HAQ) (Homo sapiens, UniProt Q86WV6, G230A/H232R/R293Q/R71H); assay: Luciferase reporter assay in HEK293T-hSTING-Luciferase cells, HAQ polymorph; type: cell-based; conditions: HAQ polymorph of human STING, EC50 range class
Excerpt: (§1) Stable Cell Line Generation • a) Stable STING expressing cells—Stable HEK293T STING-expressing cell lines were generated using plasmids purchased from Invivogen, CA, USA, that contain STING cDNA cloned into the pUNO-1 vector under hEF1-HTLV promoter and containing the Blasticidin selection cassette. The plasmids hSTING(R232), hSTING(H232), hSTING(HAQ) were directly procured from Invivogen while hSTING (AQ) and hSTING (Q) were derived from hSTING(HAQ) and hSTING (R232) plasmids respectively by using a PCR based site directed mutagenesis method. These vectors were individually transfected into HEK293T cells using Lipofectamine (Invitrogen) and transfected cells were selected under Blasticidin selection. These transfected cells were further subjected to clonal selection using the limiting dilution method to obtain clonally pure populations of HEK cells transfected with each of the above mentioned human STING variants. Only those clones were selected in which ligand independent activation of STING was minimal. • b) Stable Luciferase reporter gene expressing cells—Stable HEK293T Luciferase reporter gene expressing cell lines were generated using pCDNA4 plasmids under an IRF-inducible promoter. This promoter is comprised of five tandem interferon-stimulated response elements (ISRE) fused to an ISG54 minimal promoter. This vector was transfected into HEK293T cells using Lipofectamine (Invitrogen) and transfected cells were selected under Zeocin selection. These transfected cells were further subjected to clonal selection using the limiting dilution method to obtain clonally pure populations of HEK cells transfected the Luciferase reporter construct. Only those clones were selected in which ligand independent induction of luciferase was minimal.
(§2) 5×10^5 clonally selected HEK293T-hSTING-Luciferase cells were seeded in 384-well plates in growth medium and stimulated with novel compounds. After 20 hr of stimulation supernatant were removed and secretary reporter gene activity were measured using the Quanti-Luc detection system (Invivogen) on a Spectramax i3X luminometer.
(§3) In the tables below, EC50 value ranges for exemplary compounds are given.
(§4) Single nucleotide polymorphisms of human STING have been described, which can affect the functional potency of compounds that modulate the activity of the STING protein (see Yi et. al., PLoS One, October 2013, 8(10), e77846). The 5 major polymorphisms of human STING are shown in FIG. 1, with their prevalence in human populations indicated.
(§5) The tables below show the potency of selected compounds of the invention against the most common polymorphisms.

NF-κB pathway = assay: Reporter gene expression assay in THP1-Dual cells, NFkB axis (secreted SEAP); type: cell-based, human; conditions: 20 hr stimulation, EC50 range class, read-out: THP-NFκB activity
Protocol: (§6) THP1-Dual™ cells (Invivogen) were derived from the human THP-1 monocyte cell line by stable integration of two inducible reporter constructs. As a result, THP1-Dual™ cells allow the simultaneous study of the NF-κB pathway, by monitoring the activity of secreted SEAP, and the IRF pathway, by assessing the activity of a secreted luciferase (Lucia). 5×10^5 THP1-Dual™ cells were seeded in 384-well plates in growth medium and stimulated with novel compounds. After 20 hr of stimulation supernatants were removed and reporter proteins were readily measured in the cell culture supernatant using QUANTI-Blue™ (Invivogen), a SEAP detection reagent, and QUANTI-Luc™ (Invivogen), a luciferase detection reagent on a Spectramax i3X luminometer.
(§7) EC50 value ranges for exemplary compounds tested in the above assay are given.

hSTING(R232) = hSTING(R232) (Homo sapiens, UniProt Q86WV6, H232R); assay: Luciferase reporter assay in HEK293T-hSTING-Luciferase cells, R232 (wild type) human STING; type: cell-based; conditions: 20 hr stimulation, read-out: R232 human activity (EC50 range)
Summary of the method: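 Clonal HEK293T cells stably expressing STING from a pUNO-1 plasmid plus an ISRE/ISG54-driven secreted luciferase reporter; 5×10^5 cells stimulated with compound for 20 hr. Supernatant luciferase read by luminescence, giving fold-induction over baseline and EC50.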

IRF pathway = assay: Reporter gene expression assay in THP1-Dual cells, IRF axis (secreted Lucia luciferase); type: cell-based, human; conditions: 20 hr stimulation, EC50 range class, read-out: THP-IRF activity
Protocol: as §6, §7

hSTING(H232) = hSTING(H232) (Homo sapiens, UniProt Q86WV6); assay: Luciferase reporter assay in HEK293T-hSTING-Luciferase cells, H232/REF polymorph; type: cell-based; conditions: H232/REF polymorph of human STING, EC50 range class
Excerpt: as §1, §2, §3, §4, §5

[1] = target: cynomolgus monkey STING protein (Macaca fascicularis, UniProt A0A2R3XZA6); assay: Luciferase reporter assay, cynomolgus monkey STING overexpressed in HEK293T cells; type: cell-based; conditions: cynomolgus monkey STING overexpressed in HEK293T cells; read-out: Cynomolgus monkey STING activity (EC50 range)
Summary of the method: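 HEK293T cells overexpressing cynomolgus STING with a secreted luciferase reporter were stimulated with compound for 20 hr. Supernatant reporter activity was then measured by Quanti-Luc luminescence, and EC50 values were derived.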

Chain of hSTING(H232) (Q86WV6 whole entry): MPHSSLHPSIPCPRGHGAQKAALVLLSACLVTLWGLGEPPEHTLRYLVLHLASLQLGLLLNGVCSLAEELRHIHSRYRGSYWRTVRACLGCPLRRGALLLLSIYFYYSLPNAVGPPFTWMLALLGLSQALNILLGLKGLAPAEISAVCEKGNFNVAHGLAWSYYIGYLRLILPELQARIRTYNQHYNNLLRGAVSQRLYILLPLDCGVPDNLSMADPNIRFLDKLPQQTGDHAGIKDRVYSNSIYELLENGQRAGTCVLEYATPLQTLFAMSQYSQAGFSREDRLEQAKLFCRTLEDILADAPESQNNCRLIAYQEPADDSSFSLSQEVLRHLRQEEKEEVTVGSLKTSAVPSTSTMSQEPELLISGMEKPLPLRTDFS
Chain of hSTING(HAQ) (Q86WV6 whole entry R71H/G230A/H232R/R293Q): as the sequence (Q86WV6 whole entry) above, with R71H, G230A, H232R, R293Q counted along it
Chain of cynomolgus monkey STING protein (A0A2R3XZA6 entry or part of it): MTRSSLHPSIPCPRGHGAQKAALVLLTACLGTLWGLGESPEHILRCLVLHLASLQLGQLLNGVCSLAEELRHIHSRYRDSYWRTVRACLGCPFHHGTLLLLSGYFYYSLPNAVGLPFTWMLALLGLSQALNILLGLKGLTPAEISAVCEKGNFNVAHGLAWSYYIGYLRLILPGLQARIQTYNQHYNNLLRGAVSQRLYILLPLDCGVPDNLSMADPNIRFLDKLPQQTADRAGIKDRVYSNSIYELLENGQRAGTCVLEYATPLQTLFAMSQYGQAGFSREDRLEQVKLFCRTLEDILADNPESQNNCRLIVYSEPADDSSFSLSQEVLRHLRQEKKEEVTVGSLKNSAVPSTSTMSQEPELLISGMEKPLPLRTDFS
Chain of hSTING(R232) (Q86WV6 whole entry H232R): as the sequence (Q86WV6 whole entry) above, with H232R counted along it

| EC50 (hSTING(HAQ)) | EC50 (NF-κB pathway; Homo sapiens) | EC50 (hSTING(R232)) | EC50 (IRF pathway; Homo sapiens) | EC50 (hSTING(H232)) | EC50 [1] | EC50 (NF-κB pathway) | EC50 (IRF pathway) | Compound |
| --- | --- | --- | --- | --- | --- | --- | --- | --- |
| < 1000 nM | < 1000 nM | < 1000 nM | < 1000 nM | < 1000 nM | < 1000 nM | – | – | C[C@H]1c2ccc(C(=O)NCc3c(F)cc(F)cc3F)cc2N(Cc2c(F)cc(OCCCO)cc2F)C(=O)N1C [Example 81, (S)-1-(2,6-difluoro-4-(3-hydroxypropoxy)benzyl)-3,4-dimethyl-2-oxo-N-(2,4,6-trifluorobenzyl)-1,2,3,4-tetrahydroquinazoline-7-carboxamide] |
| < 1000 nM | < 1000 nM | < 1000 nM | < 1000 nM | < 1000 nM | < 1000 nM | – | – | C[C@H]1c2ccc(C(=O)NCc3c(F)cc(F)cc3F)cc2N(Cc2c(F)ccc(OCCO)c2Cl)C(=O)N1C [Example 137, (S)-1-(2-Chloro-6-fluoro-3-(2-hydroxyethoxy)benzyl)-3,4-dimethyl-2-oxo-N-(2,4,6-trifluorobenzyl)-1,2,3,4-tetrahydroquinazoline-7-carboxamide] |
| < 1000 nM | < 1000 nM | < 1000 nM | < 1000 nM | < 1000 nM | < 1000 nM | – | – | C[C@H]1c2ccc(C(=O)NCc3c(F)cc(F)cc3F)cc2N(Cc2c(F)cccc2Cl)C(=O)N1C (single isomer, unassigned) [Example 76] |
| < 1000 nM | < 1000 nM | < 1000 nM | < 1000 nM | < 1000 nM | < 1000 nM | – | – | C[C@H]1c2ccc(C(=O)NCc3c(F)cc(F)cc3F)cc2N(Cc2c(N)cccc2F)C(=O)N1C [Example 182, (S)-1-(2-amino-6-fluorobenzyl)-3,4-dimethyl-2-oxo-N-(2,4,6-trifluorobenzyl)-1,2,3,4-tetrahydroquinazoline-7-carboxamide] |
| < 1000 nM | < 1000 nM | < 1000 nM | < 1000 nM | < 1000 nM | < 1000 nM | – | – | COc1ccc(F)c(CN2C(=O)N(C)[C@@H](C)c3ccc(C(=O)NCc4c(F)cc(F)cc4F)cc32)c1Cl [Example 88, (S)-1-(2-Chloro-6-fluoro-3-methoxybenzyl)-3,4-dimethyl-2-oxo-N-(2,4,6-trifluorobenzyl)-1,2,3,4-tetrahydroquinazoline-7-carboxamide] |
| < 1000 nM | < 1000 nM | < 1000 nM | < 1000 nM | < 1000 nM | < 1000 nM | – | – | C[C@H]1c2ccc(C(=O)NCc3c(F)cc(F)cc3F)cc2N(Cc2cc(O)cc(F)c2F)C(=O)N1C [Example 281, (S)-1-(2,3-difluoro-5-hydroxybenzyl)-3,4-dimethyl-2-oxo-N-(2,4,6-trifluorobenzyl)-1,2,3,4-tetrahydroquinazoline-7-carboxamide] |
| < 1000 nM | < 1000 nM | < 1000 nM | < 1000 nM | < 1000 nM | < 1000 nM | – | – | Cc1nccc(CN2C(=O)N(C)C(C)c3ccc(C(=O)NCc4c(F)cc(F)cc4F)cc32)c1F (stereo not drawn) [Example 180, 1-((3-fluoro-2-methylpyridin-4-yl)methyl)-3,4-dimethyl-2-oxo-N-(2,4,6-trifluorobenzyl)-1,2,3,4-tetrahydroquinazoline-7-carboxamide] |
| < 1000 nM | < 1000 nM | < 1000 nM | < 1000 nM | < 1000 nM | < 1000 nM | – | – | COc1ccc(F)c(F)c1CN1C(=O)N(C)[C@@H](C)c2ccc(C(=O)NCc3c(F)cc(F)cc3F)cc21 [Example 241, (S)-1-(2,3-difluoro-6-methoxybenzyl)-3,4-dimethyl-2-oxo-N-(2,4,6-trifluorobenzyl)-1,2,3,4-tetrahydroquinazoline-7-carboxamide] |
| < 1000 nM | < 1000 nM | < 1000 nM | < 1000 nM | < 1000 nM | < 1000 nM | – | – | Cc1cccc(F)c1CN1C(=O)N(C)C(C)c2ccc(C(=O)NCc3c(F)cc(F)cc3F)cc21 (stereo not drawn) [Example 162, 1-(2-fluoro-6-methylbenzyl)-3,4-dimethyl-2-oxo-N-(2,4,6-trifluorobenzyl)-1,2,3,4-tetrahydroquinazoline-7-carboxamide] |
| < 1000 nM | < 1000 nM | < 1000 nM | < 1000 nM | < 1000 nM | < 1000 nM | – | – | C[C@H]1c2ccc(C(=O)NCc3c(F)cc(F)cc3F)cc2N(Cc2cc(O)ccc2F)C(=O)N1C [Example 262, (S)-1-(2-fluoro-5-hydroxybenzyl)-3,4-dimethyl-2-oxo-N-(2,4,6-trifluorobenzyl)-1,2,3,4-tetrahydroquinazoline-7-carboxamide] |
| < 1000 nM | < 1000 nM | < 1000 nM | < 1000 nM | < 1000 nM | < 1000 nM | – | – | C[C@H]1c2ccc(C(=O)NCc3c(F)cc(F)cc3F)cc2N(Cc2c(O)ccc(F)c2F)C(=O)N1C [Example 242, (S)-1-(2,3-difluoro-6-hydroxybenzyl)-3,4-dimethyl-2-oxo-N-(2,4,6-trifluorobenzyl)-1,2,3,4-tetrahydroquinazoline-7-carboxamide] |
| < 1000 nM | – | < 1000 nM | – | < 1000 nM | < 1000 nM | < 1000 nM | < 1000 nM | COc1cccc(F)c1CN1C(=O)N(C)C(C)c2ccc(C(=O)NCc3c(F)cc(F)cc3F)cc21 (stereo not drawn) [Example 154, 1-(2-fluoro-6-methoxybenzyl)-3,4-dimethyl-2-oxo-N-(2,4,6-trifluorobenzyl)-1,2,3,4-tetrahydroquinazoline-7-carboxamide] |
| < 1000 nM | 1000 to 10000 nM | < 1000 nM | 1000 to 10000 nM | < 1000 nM | < 1000 nM | – | – | C[C@H]1c2ccc(C(=O)NCc3c(F)cc(F)cc3F)cc2N(Cc2c(F)cc(OCCO)cc2F)C(=O)N1C [Example 80, (S)-1-(2,6-Difluoro-4-(2-hydroxyethoxy)benzyl)-3,4-dimethyl-2-oxo-N-(2,4,6-trifluorobenzyl)-1,2,3,4-tetrahydroquinazoline-7-carboxamide] |
| < 1000 nM | < 1000 nM | < 1000 nM | < 1000 nM | < 1000 nM | < 1000 nM | – | – | C[C@H]1c2ccc(C(=O)NCc3c(F)cc(F)cc3F)cc2N(Cc2c(F)cncc2Br)C(=O)N1C [Example 232, (S)-1-((3-bromo-5-fluoropyridin-4-yl)methyl)-3,4-dimethyl-2-oxo-N-(2,4,6-trifluorobenzyl)-1,2,3,4-tetrahydroquinazoline-7-carboxamide] |
| < 1000 nM | < 1000 nM | < 1000 nM | < 1000 nM | < 1000 nM | < 1000 nM | – | – | Cc1ncc(Cl)c(CN2C(=O)N(C)[C@@H](C)c3ccc(C(=O)NCc4c(F)cc(F)cc4F)cc32)c1F [Example 77, (S)-1-((5-chloro-3-fluoro-2-methylpyridin-4-yl)methyl)-3,4-dimethyl-2-oxo-N-(2,4,6-trifluorobenzyl)-1,2,3,4-tetrahydroquinazoline-7-carboxamide] |
